Converted amounts (≈) assume the structure as drawn. Peptide text beside a SMILES is read from it. * marks the point of attachment. Orn(α-tetramethylguanidino) = CN(C)C(=N[C@@H](CCCN)C(=O)*)N(C)C
Columns and labels:
[1] = test system: Escherichia coli ATCC25922; assay type: cell-based
[2] = test system: Pseudomonas aeruginosa DSM 9644; assay type: cell-based
Experimental: (§1) The minimum inhibitory concentrations (MIC) of the peptides were determined in a double assay of triplicates using a positive control sample (gentamycin) and a negative control sample (0.9% NaCl solution), according to a modified protocol from Wiegand et al. (Wiegand, 2008).
(§2) […] Overnight cultures were adjusted using ⅛ MHB to approximately 1.5×10^7 colony forming units per mL. Of these, 50 μL of peptide solution per well was mixed with 50 μL bacteria solution each to obtain an initial concentration of […] bacteria per well. After 20 hours of incubation at 37′C, the absorption was determined at 595 nm (microplate reader, Wallac Victor3, Perkin Elmer). The minimum inhibitory concentration was identified as the lowest peptide concentration at which no bacterial growth could be detected.
(§3) In the experiment, the antibacterial activity of the peptides according to the invention in relation to the following bacterial strains was analyzed: Pseudomonas aeruginosa PAO1 (wt strain), Pseudomonas aeruginosa DSM 9644, Staphylococcus aureus DSM 1104/ATCC 25923, Staphylococcus aureus ATCC 6247, Escherichia coli UB 1005 (F—, nalA37, metB1) and Escherichia coli ATCC25922.

[3] = test system: E. coli BL21AI; assay type: cell-based, Escherichia coli
[4] = test system: K. pneumoniae DSM 681; assay type: cell-based
Experimental: as §1, §2

[5] = in vitro; details: mouse
Experimental: The serum stability of selected apidaecin derivatives was also measured.

[6] = test system: S. aureus DSM 6247; assay type: cell-based, Staphylococcus aureus
[7] = test system: S. aureus DSM 6247; assay type: cell-based, Staphylococcus aureus; remark: listed apart in the source
Experimental: as §1
(§4) For this purpose, the peptides were dissolved in water and were diluted in a double dilution series with 1/8 MH (eight-fold diluted Mueller-Hinton-Medium—2.6 g/L, Merck) in sterile 96-well, plates (Greiner Bio-One GmbH) in twelve dilution steps from 128 μg/mL to 62.5 ng/mL. Overnight cultures were adjusted using ⅛ MHB to approximately 1.5×10^7 colony forming units per mL. Of these, 50 μL of peptide solution per well was mixed with 50 μL bacteria solution each to obtain an initial concentration of […] bacteria per well. After 20 hours of incubation at 37′C, the absorption was determined at 595 nm (microplate reader, Wallac Victor3, Perkin Elmer). The minimum inhibitory concentration was identified as the lowest peptide concentration at which no bacterial growth could be detected.
as §3

[8] = test system: E. coli DSM 1103; assay type: cell-based, Escherichia coli
Experimental: as §1, §4

[9] = test system: Pseudomonas aeruginosa PAO1 (wt strain); assay type: cell-based; details: for Improvement over Native Sequence (SEQ No. 2) P. aeruginosa PAO1 wt: fold, from MIC in 1/8 MHB
Experimental: as §1, §4, §3

[10] = test system: Staphylococcus aureus DSM 1104/ATCC 25923; assay type: cell-based; details: for MIC S. aureus ATCC 25923 / MIC S. aureus DSM 1104/ATCC 25923: DSM 1104; for Improvement over Native Sequence (SEQ No. 2) S. aureus ATCC 25923: fold, from MIC in 1/8 MHB
Experimental: as §1, §4, §3

[11] = test system: Escherichia coli UB 1005; experiment: Minimum inhibitory concentration (MIC), broth microdilution; assay type: cell-based; details: for MIC E. coli UB1005: 1/8 MHB, Table 4; for Improvement over Native Sequence (SEQ No. 2) E. coli UB1005: fold, from MIC in 1/8 MHB
Experimental: as §1, §4, §3

Row | SMILES | MIC E. coli ATCC 25922 TSB [1] [µg/mL] | MIC P. aeruginosa DSM 9644 TSB [2] [µg/mL] | MIC E. coli BL21AI TSB [3] [µg/mL] | MIC K. pneumoniae DSM 681 TSB [4] [µg/mL] | half-life ([5]; 25% mouse serum) [h] | MIC S. aureus DSM 6247 MHB [6] [µg/mL] | MIC S. aureus DSM 6247 [7] [µg/mL] | MIC P. aeruginosa PAO DSM 9644 [2] [µg/mL] | MIC E. coli DSM 1103 [8] [µg/mL] | MIC P. aeruginosa PAO1 wt [9] [µg/mL] | Improvement over Native Sequence (SEQ No. 2) P. aeruginosa PAO1 wt [9] | MIC S. aureus ATCC 25923 [10] [µg/mL] | MIC S. aureus DSM 1104/ATCC 25923 [10] [µg/mL] | Improvement over Native Sequence (SEQ No. 2) S. aureus ATCC 25923 [10] | MIC E. coli UB1005 [11] [µg/mL] | Improvement over Native Sequence (SEQ No. 2) E. coli UB1005 [11] | MIC E. coli ATCC 25922 [1] [µg/mL] | half-life ([5]; 100% mouse serum) [h]
1 | CC[C@H](C)[C@H](NC(=O)[C@H](Cc1ccc(O)cc1)NC(=O)[C@@H](NC(=O)[C@@H]1CCCN1C(=O)[C@H](CCCNC(=N)N)NC(=O)[C@H](CC(N)=O)NC(=O)[C@H](CC(N)=O)NC(=O)[C@H](CCCN)N=C(N(C)C)N(C)C)C(C)C)C(=O)N1CCC[C@H]1C(=O)N[C@@H](CCCNC(=N)N)C(=O)N1CCC[C@H]1C(=O)N[C@@H](CCCNC(=N)N)C(=O)N1CCC[C@H]1C(=O)N1CCC[C@H]1C(=O)N[C@@H](Cc1c[nH]cn1)C(=O)N1CCC[C@H]1C(=O)N[C@@H](CCCNC(=N)N)C(=O)N[C@@H](CC(C)C)C(N)=O [compound 92] ({Orn(α-tetramethylguanidino)}-NNRPVYIPRPRPPHPRL-NH2; N-terminus and C-terminus assumed) | 2 (≈ 0.873 µM) | 8 (≈ 3.49 µM) | 1 (≈ 0.437 µM) | 2 (≈ 0.873 µM) | 0.25 ± 0.0167 | 8 (≈ 3.49 µM) |  |  |  |  |  |  |  |  |  |  |  | 
2 | CC[C@H](C)[C@H](NC(=O)[C@H](Cc1ccc(O)cc1)NC(=O)[C@@H](NC(=O)[C@@H]1CCCN1C(=O)[C@H](CCCNC(=N)N)NC(=O)[C@H](CC(N)=O)NC(=O)[C@H](CC(N)=O)NC(=O)[C@H](CCCN)N=C(N(C)C)N(C)C)C(C)C)C(=O)N1CCC[C@H]1C(=O)N[C@@H](CCCNC(=N)N)C(=O)N1CCC[C@H]1C(=O)N[C@@H](CCCNC(=N)N)C(=O)N[C@@H](CCCNC(=N)N)C(=O)N1CCC[C@H]1C(=O)N[C@@H](Cc1c[nH]cn1)C(=O)N1CCC[C@H]1C(=O)N[C@@H](CCCNC(=N)N)C(=O)N[C@@H](CC(C)C)C(=O)O [compound 86] ({Orn(α-tetramethylguanidino)}-NNRPVYIPRPRRPHPRL-OH) |  |  |  |  |  |  | 32 (≈ 13.6 µM) | 32 (≈ 13.6 µM) | 8 (≈ 3.4 µM) |  |  |  |  |  |  |  |  | 
3 | CC[C@H](C)[C@H](NC(=O)[C@H](Cc1ccc(O)cc1)NC(=O)[C@@H](NC(=O)[C@@H]1CCCN1C(=O)[C@H](CCCNC(=N)N)NC(=O)[C@H](CC(N)=O)NC(=O)[C@H](Cc1c[nH]c2ccccc12)NC(=O)CN)C(C)C)C(=O)N1CCC[C@H]1C(=O)N[C@@H](CCC(N)=O)C(=O)N1CCC[C@H]1C(=O)N[C@@H](CCCNC(=N)N)C(=O)N[C@@H](CCCNC(=N)N)C(=O)N1CCC[C@H]1C(=O)N[C@@H](Cc1c[nH]cn1)C(=O)N1CCC[C@H]1C(=O)N[C@@H](CCCNC(=N)N)C(=O)N[C@@H](CC(C)C)C(N)=O [compound 52] (H-GWNRPVYIPQPRRPHPRL-NH2; N-terminus assumed) |  |  |  |  |  |  | 2 (≈ 0.893 µM) | 64 (≈ 28.6 µM) |  | 64 (≈ 28.6 µM) | 8 | 4 to 8 | 4 to 8 | 31-64 | 5 (≈ 2.23 µM) | 1 | 16 (≈ 7.15 µM) | 
4 | CC[C@H](C)[C@H](NC(=O)[C@H](Cc1ccc(O)cc1)NC(=O)[C@@H](NC(=O)[C@@H]1CCCN1C(=O)[C@H](CCCNC(=N)N)NC(=O)[C@H](CC(N)=O)NC(=O)[C@H](CC(N)=O)NC(=O)CN)C(C)C)C(=O)N1CCC[C@H]1C(=O)N[C@@H](CCCNC(=N)N)C(=O)N1CCC[C@H]1C(=O)N[C@@H](CCCNC(=N)N)C(=O)N[C@@H](CCCNC(=N)N)C(=O)N1CCC[C@H]1C(=O)N[C@@H](Cc1c[nH]cn1)C(=O)N1CCC[C@H]1C(=O)N[C@@H](CCCNC(=N)N)C(=O)N[C@@H](CC(C)C)C(N)=O [compound 64] (H-GNNRPVYIPRPRRPHPRL-NH2; N-terminus assumed) |  |  |  |  |  |  | 2 (≈ 0.911 µM) | 32 (≈ 14.6 µM) |  | 64 (≈ 29.2 µM) | 8 | 4 (≈ 1.82 µM) | 4 (≈ 1.82 µM) | 64 | 2.5 (≈ 1.14 µM) | 2 | 8 (≈ 3.65 µM) | 
5 | CC[C@H](C)[C@H](NC(=O)[C@H](Cc1ccc(O)cc1)NC(=O)[C@@H](NC(=O)[C@@H]1CCCN1C(=O)[C@H](CCCNC(=N)N)NC(=O)[C@H](CC(N)=O)NC(=O)[C@H](CC(N)=O)NC(=O)[C@H](CCCN)N=C(N(C)C)N(C)C)C(C)C)C(=O)N1CCC[C@H]1C(=O)N[C@@H](CCCNC(=N)N)C(=O)N1CCC[C@H]1C(=O)N[C@@H](CCCNC(=N)N)C(=O)N[C@@H](CCCNC(=N)N)C(=O)N1CCC[C@H]1C(=O)N[C@@H](Cc1c[nH]cn1)C(=O)N1CCC[C@H]1C(=O)N[C@@H](CCCNC(=N)N)C(=O)N[C@@H](CC(C)C)C(N)=O [compound 88] ({Orn(α-tetramethylguanidino)}-NNRPVYIPRPRRPHPRL-NH2) |  |  |  |  |  |  | 16 (≈ 6.81 µM) | 16 (≈ 6.81 µM) | 8 (≈ 3.4 µM) |  |  |  |  |  |  |  |  | 
6 | CC[C@H](C)[C@H](NC(=O)[C@H](Cc1ccc(O)cc1)NC(=O)[C@@H](NC(=O)[C@@H]1CCCN1C(=O)[C@H](CCCNC(=N)N)NC(=O)[C@H](CC(N)=O)NC(=O)[C@H](CC(N)=O)NC(=O)[C@H](CCCN)N=C(N(C)C)N(C)C)C(C)C)C(=O)N1CCC[C@H]1C(=O)N[C@@H](CCCNC(=N)N)C(=O)N1CCC[C@H]1C(=O)N[C@@H](CCCNC(=N)N)C(=O)N1CCC[C@H]1C(=O)N1CCC[C@H]1C(=O)N[C@@H](Cc1c[nH]cn1)C(=O)N1CCC[C@H]1C(=O)N[C@@H](CCCNC(=N)N)C(=O)N[C@@H](CC(C)C)C(=O)O [compound 93] ({Orn(α-tetramethylguanidino)}-NNRPVYIPRPRPPHPRL-OH; N-terminus and C-terminus assumed) | 4 (≈ 1.75 µM) | 16 (≈ 6.98 µM) | 1 (≈ 0.436 µM) | 2 (≈ 0.873 µM) |  | 16 to 32 |  |  |  |  |  |  |  |  |  |  |  | 5.83 ± 0.567
7 | CC[C@H](C)[C@H](NC(=O)[C@H](Cc1ccc(O)cc1)NC(=O)[C@@H](NC(=O)[C@@H]1CCCN1C(=O)[C@H](CCCNC(=N)N)NC(=O)[C@H](CC(N)=O)NC(=O)[C@H](CC(N)=O)NC(=O)CN)C(C)C)C(=O)N1CCC[C@H]1C(=O)N[C@@H](CCC(N)=O)C(=O)N1CCC[C@H]1C(=O)N[C@@H](CCCNC(=N)N)C(=O)N1CCC[C@H]1C(=O)N1CCC[C@H]1C(=O)N[C@@H](Cc1c[nH]cn1)C(=O)N1CCC[C@H]1C(=O)N[C@@H](CCCNC(=N)N)C(=O)N[C@@H](CC(C)C)C(=O)O [compound 2] (H-GNNRPVYIPQPRPPHPRL-OH; N-terminus assumed) |  |  |  |  |  |  | 256 (≈ 121 µM) | >256 |  | 500 (≈ 237 µM) | 1 | >125 | >125 | 1 | 5 (≈ 2.37 µM) | 1 | 2 (≈ 0.949 µM) | 
8 | CC[C@H](C)[C@H](NC(=O)[C@H](Cc1ccc(O)cc1)NC(=O)[C@@H](NC(=O)[C@@H]1CCCN1C(=O)[C@H](CCCNC(=N)N)NC(=O)[C@H](CC(N)=O)NC(=O)[C@H](CC(N)=O)NC(=O)[C@H](CCCN)N=C(N(C)C)N(C)C)C(C)C)C(=O)N1CCC[C@H]1C(=O)N[C@@H](CCCNC(=N)N)C(=O)N1CCC[C@H]1C(=O)N[C@@H](CCCNC(=N)N)C(=O)N1CCC[C@H]1C(=O)N1CCC[C@H]1C(=O)N[C@@H](Cc1c[nH]cn1)C(=O)N1CCC[C@H]1C(=O)N[C@@H](CCCNC(=N)N)C(=O)N[C@@H](CCCNC(=N)N)C(=O)O [compound 84] ({Orn(α-tetramethylguanidino)}-NNRPVYIPRPRPPHPRR-OH) |  |  |  |  |  |  | 8 (≈ 3.43 µM) | 64 (≈ 27.4 µM) | 4 (≈ 1.71 µM) |  |  |  |  |  |  |  |  | 

Source: patent US9556228B2 (Universitaet Leipzig, priority 2011, dated 2017)
